Marks after values point to notes of the source that are not given here.
System: sunflower lines and hybrids carrying A122T and/or A205V AHASL1 alleles
Test: Greenhouse whole-plant response to imazapyr doses (height, Phytotoxicity Index, dry biomass), Example 2
Format: in vivo, Helianthus annuus
Details: 14 DAT; for Biomass weight reduction: heterozygous A122T/A205V
Experimental: Seeds were sown in Petri dishes and, after germination, plantlets were transplanted to pots of 10 cm of diameter in a potting media consisting of equal parts of vermiculite, soil and sand. Plants were grown in a greenhouse under natural light conditions supplemented with 400 W sodium halide lamps to provide a 16 hr daylength. Day/night temperatures were 25 and 20° C., respectively. At the V2-V4 stage (Schneiter & Miller (1981) Crop Sci. 21:901-903) 10 plants of each genotype were randomly assigned to each treatment consisting of eight imazapyr doses (0, 40, 80, 160, 240, 320, 400 and 480 g ai/ha, corresponding to untreated, 0.5×, 1×, 2×, 3×, 4×, 5× and 6×, respectively), and a zero-time biomass determination. Experiment was arranged as a randomized block design with a full factorial (sunflower line×treatment) arrangement of treatments and 10 replications.
On the day of herbicide application ten plants of each genotype were cut at the cotyledonal node and dried at 60° C. for 48 hrs for zero-time dried weight determination.
The remaining plants were maintained for 14 days after imazapyr treatment (DAT) and their height, Phytotoxicity Index (PI) and above ground dry biomass were determined Height was determined as the distance between the cotyledonal node and the apex of each plant. Above ground biomass data from each line were converted to biomass accumulation after application by subtracting the appropriate average zero-time biomass from each sample. Dry biomass data were converted to percentages of the untreated control plants within each line to allow direct comparisons between groups.

[1] = H4 (A122T/A205V hybrid), 4x=320 g ai/ha
[2] = L1 (A205V line), 0.5x=40 g ai/ha
[3] = L1 (A205V line), 3x=240 g ai/ha
[4] = L2 (A205V line), 5x=400 g ai/ha
[5] = L3 (cmsGM40, A122T line), 2x=160 g ai/ha
[6] = L3 (cmsGM40, A122T line), 4x=320 g ai/ha
[7] = L4 (A122T line), 0.5x=40 g ai/ha
[8] = L4 (A122T line), 2x=160 g ai/ha
[9] = L4 (A122T line), 3x=240 g ai/ha
[10] = L5 (WT susceptible), 1x=80 g ai/ha
[11] = L5 (WT susceptible), 2x=160 g ai/ha
[12] = L5 (WT susceptible), 3x=240 g ai/ha
[13] = L5 (WT susceptible), 4x=320 g ai/ha
[14] = L5 (WT susceptible), 5x=400 g ai/ha
[15] = L5 (WT susceptible), 6x=480 g ai/ha
[16] = mean of A122T genotypes (H2,L3,L4), 2x=160 g ai/ha
[17] = mean of A122T genotypes (H2,L3,L4), 3x=240 g ai/ha

CC(C)C1(C)N=C(c2ncccc2C(=O)O)NC1=O (stereo not drawn) [imazapyr]
biomass accumulation (dry) [1]: 85.0 % of untreated
plant height [1]: 95.0 % of untreated
Phytotoxicity Index (scale 0-9) (H4 (A122T/A205V hybrid), 5x=400 g ai/ha): 0.2
Phytotoxicity Index (scale 0-9) (H4 (A122T/A205V hybrid), 6x=480 g ai/ha): 0.0
Phytotoxicity Index (scale 0-9) [2]: 0
plant height [2]: 100.0 % of untreated
Phytotoxicity Index (scale 0-9) (L1 (A205V line), 1x=80 g ai/ha): 0
plant height (L1 (A205V line), 1x=80 g ai/ha): 100.0 % of untreated
Phytotoxicity Index (scale 0-9) (L1 (A205V line), 2x=160 g ai/ha): 1.6
Phytotoxicity Index (scale 0-9) [3]: 5.1
plant height [3]: 50.0 % of untreated
Phytotoxicity Index (scale 0-9) (L1 (A205V line), 4x=320 g ai/ha): 8.4
Phytotoxicity Index (scale 0-9) (L1 (A205V line), 5x=400 g ai/ha): 8.9
Phytotoxicity Index (scale 0-9) (L1 (A205V line), 6x=480 g ai/ha): 8.9
Phytotoxicity Index (scale 0-9) (L2 (A205V line), 0.5x=40 g ai/ha): 0
Phytotoxicity Index (scale 0-9) (L2 (A205V line), 1x=80 g ai/ha): 0
biomass accumulation (dry) (L2 (A205V line), 1x=80 g ai/ha): 85.0 % of untreated
Phytotoxicity Index (scale 0-9) (L2 (A205V line), 2x=160 g ai/ha): 3.1
Phytotoxicity Index (scale 0-9) (L2 (A205V line), 3x=240 g ai/ha): 3.9
Phytotoxicity Index (scale 0-9) (L2 (A205V line), 4x=320 g ai/ha): 5.9
Phytotoxicity Index (scale 0-9) [4]: 6.9
plant height [4]: 26.0 % of untreated
Phytotoxicity Index (scale 0-9) (L2 (A205V line), 6x=480 g ai/ha): 6.7
Phytotoxicity Index (scale 0-9) (L3 (cmsGM40, A122T line), 0.5x=40 g ai/ha): 0.4
Phytotoxicity Index (scale 0-9) (L3 (cmsGM40, A122T line), 1x=80 g ai/ha): 0.4
Phytotoxicity Index (scale 0-9) [5]: 0.4
plant height [5]: 92.0 % of untreated
Phytotoxicity Index (scale 0-9) (L3 (cmsGM40, A122T line), 3x=240 g ai/ha): 0.5
Phytotoxicity Index (scale 0-9) [6]: 1.0
biomass accumulation (dry) [6]: 75.0 % of untreated
Phytotoxicity Index (scale 0-9) (L3 (cmsGM40, A122T line), 5x=400 g ai/ha): 2.0
Phytotoxicity Index (scale 0-9) (L3 (cmsGM40, A122T line), 6x=480 g ai/ha): 2.5
Phytotoxicity Index (scale 0-9) [7]: 0.0
biomass accumulation (dry) [7]: 100.0 % of untreated
plant height [7]: 100.0 % of untreated
Phytotoxicity Index (scale 0-9) (L4 (A122T line), 1x=80 g ai/ha): 0.0
plant height (L4 (A122T line), 1x=80 g ai/ha): 100.0 % of untreated
Phytotoxicity Index (scale 0-9) [8]: 0.0
biomass accumulation (dry) [8]: 97.0 % of untreated
Phytotoxicity Index (scale 0-9) [9]: 0.0
plant height [9]: 97.0 % of untreated
Phytotoxicity Index (scale 0-9) (L4 (A122T line), 4x=320 g ai/ha): 0.0
Phytotoxicity Index (scale 0-9) (L4 (A122T line), 5x=400 g ai/ha): 0.0
Phytotoxicity Index (scale 0-9) (L4 (A122T line), 6x=480 g ai/ha): 0.5
Phytotoxicity Index (scale 0-9) (L5 (WT susceptible), 0.5x=40 g ai/ha): 9
Phytotoxicity Index (scale 0-9) [10]: 9
biomass accumulation (dry) [10]: 15.0 % of untreated
Phytotoxicity Index (scale 0-9) [11]: 9
biomass accumulation (dry) [11]: 15.0 % of untreated
Phytotoxicity Index (scale 0-9) [12]: 9
biomass accumulation (dry) [12]: 15.0 % of untreated
Phytotoxicity Index (scale 0-9) [13]: 9
biomass accumulation (dry) [13]: 15.0 % of untreated
Phytotoxicity Index (scale 0-9) [14]: 9
biomass accumulation (dry) [14]: 15.0 % of untreated
Phytotoxicity Index (scale 0-9) [15]: 9
biomass accumulation (dry) [15]: 15.0 % of untreated
Height reduction (heterozygotes A122T/A205V, 0.5x): 0.6%
Biomass weight reduction (0.5x): 0.3%
Biomass weight reduction (6x): 33%
Phytotoxicity Index (scale 0-9) (mean of A122T genotypes (H2,L3,L4), 0.5x=40 g ai/ha): 0.3
Phytotoxicity Index (scale 0-9) (mean of A122T genotypes (H2,L3,L4), 1x=80 g ai/ha): 0.3
Phytotoxicity Index (scale 0-9) [16]: 0.3
plant height [16]: 98.0 % of untreated
Phytotoxicity Index (scale 0-9) [17]: 0.3
biomass accumulation (dry) [17]: 90.0** % of untreated
Phytotoxicity Index (scale 0-9) (mean of A122T genotypes (H2,L3,L4), 4x=320 g ai/ha): 0.5
Phytotoxicity Index (scale 0-9) (mean of A122T genotypes (H2,L3,L4), 5x=400 g ai/ha): 0.8
Phytotoxicity Index (scale 0-9) (mean of A122T genotypes (H2,L3,L4), 6x=480 g ai/ha): 1.2
Phytotoxicity Index (scale 0-9) (mean of A122T/A205V genotypes (H3,H4), 0.5x=40 g ai/ha): 0.5
Phytotoxicity Index (scale 0-9) (mean of A122T/A205V genotypes (H3,H4), 1x=80 g ai/ha): 0.5
Phytotoxicity Index (scale 0-9) (mean of A122T/A205V genotypes (H3,H4), 2x=160 g ai/ha): 0.5
Phytotoxicity Index (scale 0-9) (mean of A122T/A205V genotypes (H3,H4), 3x=240 g ai/ha): 0.5
Phytotoxicity Index (scale 0-9) (mean of A122T/A205V genotypes (H3,H4), 4x=320 g ai/ha): 0.5
Phytotoxicity Index (scale 0-9) (mean of A122T/A205V genotypes (H3,H4), 5x=400 g ai/ha): 0.6
Phytotoxicity Index (scale 0-9) (mean of A122T/A205V genotypes (H3,H4), 6x=480 g ai/ha): 1
Phytotoxicity Index (scale 0-9) (mean of A205V genotypes (H1,L1,L2), 2x=160 g ai/ha): 2.2*
Phytotoxicity Index (scale 0-9) (mean of A205V genotypes (H1,L1,L2), 3x=240 g ai/ha): 5.1**
Phytotoxicity Index (scale 0-9) (mean of A205V genotypes (H1,L1,L2), 4x=320 g ai/ha): 7.4**
Phytotoxicity Index (scale 0-9) (mean of A205V genotypes (H1,L1,L2), 5x=400 g ai/ha): 8.2**
Phytotoxicity Index (scale 0-9) (mean of A205V genotypes (H1,L1,L2), 6x=480 g ai/ha): 8.2**

— US20150148235A1, “HERBICIDE-RESISTANT SUNFLOWER PLANTS WITH MULTIPLE HERBICIDE RESISTANT ALLELES OF AHASL1 AND METHODS OF USE” (NIDERA S.A., priority 2013, published 2015)
